This note sets out measurements from patent publication US20090042188A1, “Agent for Differentiating Hematopoietic Stem Cell Into Natural Killer Cell Comprising Vdup1 Protein or Gene Encoding the Same, and a Method of Differentiating Hematopoietic Stem Cell Into Natural Killer Cell Using Thereof” (Korea Research Institute of Bioscience and Biotechnology, priority 2005, published 2009).

One series has as its system mature NK cells. The experiment in a line: 51Cr release assay of mature spleen NK cells treated with IL-2 and vitamin D3. The format is cell-based. Conditions: mature NK cells from wild type mouse spleen, vitamin D3 together with IL-2 for 24 hours (FIG. 17). As to the method: FIG. 17 is a graph showing the cytotoxicity of mature NK cells, separated from spleen of a wild type mouse, and then treated with IL-2 and/or vitamin D3 for 24 hours, detected by ^51Cr release assay.
(§1) NK cells, differentiated in vitro or isolated from spleen, were treated with IL-2 (10 u/ml), followed by culture for 24 hours. After being washed, NK cells were plated, according to ratios of effector cells to target cells, into a 96 well plate (well round bottom plate, Falcon, USA) containing target cells (^51Cr-labeled Yac-1 cells, 10^4/well), followed by further culture for 4 hours. Upon completion of the culture, radioactivity of 100 ul of supernatant was measured by γ counter (FIG. 9).
Further, mature NK cells were isolated from spleen of a wild type mouse. The cells were treated with vitamin D3 together with IL-2 for 24 hours, followed by ^51Cr release assay (FIG. 17).

The subject of another series is Yac-1. The experiment in a line: 51Cr release assay of NK cells differentiated in vitro under vitamin D3. The format is cell-based, mouse. Conditions: 10 nM vitamin D3 during differentiation, compared with vitamin D3 non-treating group (FIG. 16). How it is done: FIG. 16 is a graph showing the cytotoxicity, investigated by ^51Cr release assay, of NK cells for a target cell ‘Yac-1’ developed under the treatment of low concentration of vitamin D3 (10 nM). E/T means the ratio of effective cells to target cells.
as §1
To investigate the effect of vitamin D3, known to regulate VDUP1, on NK cell development, 1,25-dihydroxy vitamin D(3) was treated to each stage of differentiation from mouse HSCs into mNK cells via pNK. The cells were matured by the culture in the presence of OP9 and IL-15, then FACS analysis (FIG. 15) and ^51Cr release assay (FIG. 16) were performed.

A further series has as its system mouse HSCs. The experiment in a line: NK cell differentiation from HSCs under vitamin D3 treatment, FACS analysis of NK1.1-positive cells. The format is cell-based. Conditions: vitamin D3 treated at each stage HSC to pNK to mNK; culture with OP9 and IL-15; FACS (FIG. 15). How it is done:
FIG. 15 is a set of graphs showing the result of FACS analysis with NK cell group positive for NK1.1. Vitamin D3 was treated during the whole procedure of differentiation from HSCs of a wild type mouse into mNK via pNK, which was progressed by the cell culture in the presence of OP9 and IL-15, resulting in the confirmation of NK cell group positive for NK1.1.
HSCs isolated from bone marrow in the above Example 1 were inoculated into 6-well plate (Falcon, USA) using a complete RPMI medium supplemented with mouse SCF (30 ng/ ? , BioSource, Camarillo, Calif.), mouse Flt3L (50 ng/ ? , PeproTech, Rocky Hill, N.J.), mouse IL-7 (0.5 ng/ ? , PeproTech), indomethacin (2 g/ ? , Sigma), gentamycin (20 g/ ? ) and 10% fetal bovine serum, at the concentration of 2×10^6 cells/well. The cells were cultured in a 37° C., 5% CO2 incubator for 6 days. […] The purity of the pNK cells was determined by FACS, confirming over 92% purity.
To generate mature NK cells (referred as “mNK cells” hereinafter), collected HSCs were cultured with or without OP9 stromal cells (Science, 265: 1098-1101, 1994) in the presence of mouse IL-15 (20 ng/ ? , PeproTech, USA). […] The purity of the mature NK cells was determined by flow cytometry (FACS) using anti-CD122, NK1.1, DX-5 and NK cell receptor antibodies. […]
(In general: In flow cytometry, cells or beads pass a laser one at a time.)

With `C=C1/C(=C\C=C2/CCC[C@]3(C)[C@@H]([C@H](C)CCCC(C)(C)O)CC[C@@H]23)C[C@@H](O)C[C@@H]1O` [vitamin D3, 1,25-dihydroxy vitamin D(3)], the NK mediated cytotoxicity entry with mature NK cells was “increased”. Besides, the “NK mediated cytotoxicity for Yac-1” value with Yac-1 was “increased”. For the same compound, the “NK cell population (NK1.1 positive)” value in the series with mouse HSCs is recorded as “increased by vitamin D3 in a dose dependent manner”.
